Assay results published in paper PMC11509018, “Evaluation of the Role of Tanshinone I in an In Vitro System of Charcot-Marie-Tooth Disease Type 2N” (International Journal of Molecular Sciences, 2024).

Target: T1, AlaRS R329H binding to GST-Nrp1 b1 (Homo sapiens, UniProt P49588, R329H)
T1 construct: made in house; host or cells: E. coli BL21 (DE3), pET-21a for AlaRS
T1 sequence (P49588 1-968 R329H): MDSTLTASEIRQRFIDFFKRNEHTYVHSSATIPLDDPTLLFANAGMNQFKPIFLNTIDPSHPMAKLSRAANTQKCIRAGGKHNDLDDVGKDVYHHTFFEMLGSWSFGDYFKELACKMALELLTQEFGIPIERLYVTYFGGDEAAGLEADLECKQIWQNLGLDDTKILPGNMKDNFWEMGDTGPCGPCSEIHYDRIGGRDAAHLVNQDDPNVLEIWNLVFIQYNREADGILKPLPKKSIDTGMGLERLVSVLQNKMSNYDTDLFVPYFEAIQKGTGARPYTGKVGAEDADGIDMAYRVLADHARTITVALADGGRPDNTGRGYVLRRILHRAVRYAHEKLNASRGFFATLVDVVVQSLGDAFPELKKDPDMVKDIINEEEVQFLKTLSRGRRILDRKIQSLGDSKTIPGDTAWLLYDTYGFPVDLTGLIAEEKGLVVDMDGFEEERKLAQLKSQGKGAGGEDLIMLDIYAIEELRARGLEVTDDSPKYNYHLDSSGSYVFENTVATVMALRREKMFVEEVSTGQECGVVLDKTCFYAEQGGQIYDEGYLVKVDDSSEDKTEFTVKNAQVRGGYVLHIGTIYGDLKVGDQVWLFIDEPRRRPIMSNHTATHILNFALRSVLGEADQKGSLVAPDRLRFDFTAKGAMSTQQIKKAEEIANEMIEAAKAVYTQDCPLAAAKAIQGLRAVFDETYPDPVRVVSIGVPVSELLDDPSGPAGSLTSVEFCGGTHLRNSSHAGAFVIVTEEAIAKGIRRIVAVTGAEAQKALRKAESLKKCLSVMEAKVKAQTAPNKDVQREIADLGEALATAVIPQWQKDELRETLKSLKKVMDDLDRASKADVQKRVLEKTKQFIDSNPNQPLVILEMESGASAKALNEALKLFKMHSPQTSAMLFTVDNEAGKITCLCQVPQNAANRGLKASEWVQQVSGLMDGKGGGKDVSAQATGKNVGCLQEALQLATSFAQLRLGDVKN
Test: GST pull down assay
Settings: 20 µM Tanshinone I, ImageJ, average of three repeats
Procedure: To further investigate whether Tanshinone I-induced conformational changes in AlaRS CMT mutants affect their interaction with Nrp1, Co-IP experiments were performed in cells treated with Tanshinone I. By comparing Co-IP results obtained before and after treatment, we assessed the influence of the drug on the binding strength and mode between the AlaRS CMT mutants and Nrp1. […] To confirm the direct effect of Tanshinone I on the interaction between AlaRS CMT mutants and Nrp1, pull-down experiments were performed. […] Given that the interaction between AlaRS mutants and Nrp1 is associated with disease progression in CMT, the ability of Tanshinone I to disrupt this binding highlights its potential to intervene in the pathogenic mechanisms of these diseases.
Figure 7 The impact of Tanshinone I on the interaction between AlaRS mutants and Nrp1. (A) Co-IP assays were conducted to assess the binding between HA-AlaRS mutants and Nrp1, both with and without treatment with 20 µM Tanshinone I for 24 h. […] (C) Pull down assay was performed to detect the binding between AlaRS mutants and GST-Nrp1 b1 with or without 20 µM Tanshinone I. (D) Relative quantification statistics of the AlaRS mutants pulled down from the GST pull down experiments after Tanshinone I treatment were performed using ImageJ. (E) The cell viability of 293T and NSC34 cells treated with different concentrations of Tanshinone I was assessed using the CCK-8 assay over a 24 h period. TEXT PRINTED IN THE PICTURE: (B) Tanshinone I: Mean density band (N71Y): 0.60; Mean density band (G102R): 0.53; Mean density band (R326W): 0.50; Mean density band (R329H): 0.50; Mean density band (E337K): 0.62 | (D) Tanshinone I: Mean density band (N71Y): 0.82; Mean density band (G102R): 0.76; Mean density band (R326W): 0.84; Mean density band (R329H): 0.84; Mean density band (E337K): 0.90
To detect the direct interactions between the mutant proteins and Nrp1 in vitro, we performed a Glutathione S-transferase (GST) pull-down assay. AlaRS mutants fused with 6 × His were purified with Ni-NTA beads, followed by chromatography on a HiTrap Q HP column. Nrp1 b1 fragments fused with GST were purified with Glutathione Beads (#SA008100, Smart-Lifesciences, Changzhou, China). For GST pull-down assays, 1000 μg of each GST-fused Nrp1 b1 fragment was mixed with 200 μg of 6 × His-tagged fusion protein in binding buffer (50 mM Tris-HCl pH 7.5, 20 mM NaCl, 5% glycerol, 5 mM DTT with 0.1% BSA) at 4 °C overnight. The mixture was next incubated with 30 μL glutathione beads at 4 °C with constant rotation for 2–4 h. Subsequently, the bead/protein complex was washed three times, and eluted with 30 μL 2 × SDS sample buffer. The samples were then subjected to SDS-PAGE analysis. The experiment was repeated three times.

Cc1coc2c1C(=O)C(=O)c1c-2ccc2c(C)cccc12 [Tanshinone I]
Mean density band (R329H), relative quantification of AlaRS mutant pulled down: 0.84
